Assay results reported in patent publication US11459324B2, “O-glycoprotein-2-acetamido-2-deoxy-3-D-glycopyranosidase inhibitors” (BIOGEN MA INC., priority 2018, dated 2022).

Each compound was assayed against T1, Recombinant full length human OGA enzyme (Homo sapiens, UniProt O60502) (assay: OGA Enzyme Inhibition Biochemical Assay). Details: 1 nM OGA, 100 μM 4-MUGlcNAc (Km), pH 6.4, 90 minutes at room temperature, 10-point dose-response from 20 μM.
T1 construct: Recombinant full length human OGA enzyme was purchased from Origene; purchased Origene
T1 sequence (O60502 1-916): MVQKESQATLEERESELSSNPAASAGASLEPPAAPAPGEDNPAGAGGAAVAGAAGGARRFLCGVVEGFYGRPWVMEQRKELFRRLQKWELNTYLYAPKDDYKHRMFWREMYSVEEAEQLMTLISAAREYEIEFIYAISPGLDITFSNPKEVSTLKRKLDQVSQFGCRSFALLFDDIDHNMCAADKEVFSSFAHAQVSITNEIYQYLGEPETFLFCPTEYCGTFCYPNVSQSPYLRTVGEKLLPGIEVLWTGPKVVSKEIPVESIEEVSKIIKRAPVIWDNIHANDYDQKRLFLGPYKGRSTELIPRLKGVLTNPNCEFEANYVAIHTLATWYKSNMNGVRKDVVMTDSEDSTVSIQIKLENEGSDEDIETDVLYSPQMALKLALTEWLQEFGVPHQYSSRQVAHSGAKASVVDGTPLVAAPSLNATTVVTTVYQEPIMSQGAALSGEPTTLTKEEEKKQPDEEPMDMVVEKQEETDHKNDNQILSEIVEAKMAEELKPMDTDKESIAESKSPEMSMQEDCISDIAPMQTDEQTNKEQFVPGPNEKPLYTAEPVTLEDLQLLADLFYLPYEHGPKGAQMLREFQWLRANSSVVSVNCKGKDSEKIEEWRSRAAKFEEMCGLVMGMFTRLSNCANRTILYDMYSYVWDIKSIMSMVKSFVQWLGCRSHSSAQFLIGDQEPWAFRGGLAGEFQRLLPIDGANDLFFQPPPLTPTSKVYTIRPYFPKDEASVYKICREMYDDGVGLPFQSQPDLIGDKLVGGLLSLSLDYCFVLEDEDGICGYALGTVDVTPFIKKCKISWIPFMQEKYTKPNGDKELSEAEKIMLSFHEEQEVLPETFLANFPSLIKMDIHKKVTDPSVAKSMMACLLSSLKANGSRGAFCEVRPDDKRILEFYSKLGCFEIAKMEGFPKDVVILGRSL
How it was run: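 Full-length human OGA at 1 nM with 100 μM 4-MUGlcNAc (Km) in McIlvaine buffer pH 6.4 plus 0.01% BSA, 90 min at room temperature, then glycine pH 10 quench. Fluorescence read at Ex 355/Em 460 nm. 10-point, 4-fold dose-response from 20 μM, 4-parameter variable-slope fit.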

| IC50 | Compound |
| --- | --- |
| 990 nM | CC(=O)Nc1ncc(CN2C[C@@H](Cc3ncc(F)cn3)CC[C@@H]2C)s1 (single isomer, unassigned) [Example 2-26] |
| 43 nM | CC(=O)Nc1ncc(CN2CCCC(Cc3nccn3C)C2)s1 (stereo not shown) [Example 4-22, N-(5-((3-((1-methyl-1H-imidazol-2-yl)methyl)piperidin-1-yl)methyl)thiazol-2-yl)acetamide] |
| > 20000 nM | CC(=O)Nc1ncc(CN2C[C@H](Cc3ncc(F)cn3)C[C@@H]2C(F)(F)F)s1 (single isomer, unassigned) [Example 2-44] |
| 34 nM | CCC(=O)Nc1nc(F)c(CN2CC[C@H](Cc3ncc(F)cn3)C2)s1 [Example 3-27, (R)-N-(4-fluoro-5-((3-((5-fluoropyrimidin-2-yl)methyl)pyrrolidin-1-yl)methyl)thiazol-2-yl)propionamide] |
| 114 nM | CC(=O)Nc1ncc(CN2CC[C@@H](Cc3ncc(F)cn3)C2)s1 (single isomer, unassigned) [Example 2-2] |
| < 1 nM | CC(=O)Nc1nc(F)c(CN2C[C@@H](Cc3ncc(F)cn3)C[C@@H]2C)s1 [Example 3-41, N-(4-fluoro-5-(((2S,4R)-4-((5-fluoropyrimidin-2-yl)methyl)-2-methylpyrrolidin-1-yl)methyl)thiazol-2-yl)acetamide] |
| 27 nM | CC(=O)Nc1ncc(CN2CC[C@H](C)[C@@H](Cc3ncc(F)cn3)C2)s1 (single isomer, unassigned) [Example 2-38] |
| 500 nM | CC(=O)Nc1ncc(CN2CCCC(Cn3cc(F)cn3)C2)s1 (stereo not shown) [Example 4-1, N-(5-((3-((4-fluoro-1H-pyrazol-1-yl)methyl)piperidin-1-yl)methyl)thiazol-2-yl)acetamide] |
| 23 nM | CC(=O)Nc1ncc(CN2CCCC(Cc3ccc(F)cn3)C2)s1 (stereo not shown) [Example 2-5, N-(5-((3-((5-fluoropyridin-2-yl)methyl)piperidin-1-yl)methyl)thiazol-2-yl)acetamide] |
| 150 nM | CC(=O)Nc1nc(Cl)c(CN2CC[C@H](Cc3cc(C)nc(C)c3)C2)s1 [Example 3-38, (S)—N-(4-chloro-5-((3-((2,6-dimethylpyridin-4-yl)methyl)pyrrolidin-1-yl)methyl)thiazol-2-yl)acetamide] |
| 32 nM | CC(=O)Nc1ncc(CN2CCC[C@@H]([C@H](C)c3ncc(F)cn3)C2)s1 (single isomer, unassigned) [Example 2-30] |
| 310 nM | CC(=O)Nc1nc(F)c(CN2C[C@H](Cc3ncc(F)cn3)C[C@H]2C)s1 [Example 3-39, N-(4-fluoro-5-(((2R,4S)-4-((5-fluoropyrimidin-2-yl)methyl)-2-methylpyrrolidin-1-yl)methyl)thiazol-2-yl)acetamide] |
| 230 nM | CC(=O)Nc1ncc(CN2CCCC(Cn3cc(C)cn3)C2)s1 (stereo not shown) [Example 4-10, N-(5-((3-((4-methyl-1H-pyrazol-1-yl)methyl)piperidin-1-yl)methyl)thiazol-2-yl)acetamide] |
| 310 nM | CC(=O)Nc1ncc(CN2CCCC(Cn3cc(Br)cn3)C2)s1 (stereo not shown) [Example 4-9, N-(5-((3-((4-bromo-1H-pyrazol-1-yl)methyl)piperidin-1-yl)methyl)thiazol-2-yl)acetamide] |
| 4.4 nM | COc1cc(C[C@H]2C[C@@H](C)N(Cc3sc(NC(C)=O)nc3F)C2)ncn1 [Example 3-45, N-(4-fluoro-5-(((2R,4R)-4-((6-methoxypyrimidin-4-yl)methyl)-2-methylpyrrolidin-1-yl)methyl)thiazol-2-yl)acetamide] |
| 8.9 nM | COc1cc(C[C@H]2CCN(Cc3sc(NC(C)=O)nc3F)C2)ccn1 [Example 3-32, (S)—N-(4-fluoro-5-((3-((2-methoxypyridin-4-yl)methyl)pyrrolidin-1-yl)methyl)thiazol-2-yl)acetamide] |

| IC50 | Compound |
| --- | --- |
| 14 nM | CC(=O)Nc1ncc(CN2CC[C@H](Cc3ncc(C)cn3)C2)s1 [Example 3-13, (R)-N-(5-((3-((5-methylpyrimidin-2-yl)methyl)pyrrolidin-1-yl)methyl)thiazol-2-yl)acetamide] |
| 1 nM | CC(=O)Nc1ncc(CN2CC[C@H](C)[C@H](Cc3ncc(F)cn3)C2)s1 (single isomer, unassigned) [Example 2-39] |
| 12 nM | CC(=O)Nc1nnc(CN2CCC[C@H](Cc3ncc(F)cn3)C2)s1 (stereo in doubt) [Example 3-14, N-(5-((3-((5-fluoropyrimidin-2-yl)methyl)piperidin-1-yl)methyl)-1,3,4-thiadiazol-2-yl)acetamide] |
| 1.7 nM | COc1cc(C(C)C2CCN(Cc3sc(NC(C)=O)nc3F)C2)ncn1 (stereo not shown) [Example 2-52, N-(4-fluoro-5-((3-(1-(6-methoxypyrimidin-4-yl)ethyl)pyrrolidin-1-yl)methyl)thiazol-2-yl)acetamide] |
| 4 nM | CC(=O)Nc1ncc(CN2CCCC(Cc3ccccn3)C2)s1 (stereo not shown) [Example 1-2, N-(5-((3-(pyridin-2-ylmethyl)piperidin-1-yl)methyl)thiazol-2-yl)acetamide] |
| 4.8 nM | CC(=O)Nc1nc(F)c(CN2CC[C@H](Cc3ccnc(C)c3)C2)s1 [Example 3-33, (S)—N-(4-fluoro-5-((3-((2-methylpyridin-4-yl)methyl)pyrrolidin-1-yl)methyl)thiazol-2-yl)acetamide] |
| 33 nM | COc1cccc(CC2CCCN(Cc3cnc(NC(C)=O)s3)C2)c1 (stereo not shown) [Example 1-3, N-(5-((3-(3-methoxybenzyl)piperidin-1-yl)methyl)thiazol-2-yl)acetamide] |
| < 1 nM | CC(=O)Nc1nc(F)c(CN2CCC[C@H](Cc3ccnc(C)c3)C2)s1 [Example 3-18, (R)-N-(4-fluoro-5-((3-((2-methylpyridin-4-yl)methyl)piperidin-1-yl)methyl)thiazol-2-yl)acetamide] |
| 220 nM | CC(=O)Nc1ncc(CN2CCC(Cc3ccc(F)cn3)C2)s1 (stereo not shown) [Example 1-25, N-(5-((3-((5-fluoropyridin-2-yl)methyl)pyrrolidin-1-yl)methyl)thiazol-2-yl)acetamide] |
| < 1 nM | CC(=O)Nc1nc(F)c(CN2CCC[C@H](Cc3ncc(F)cn3)C2)s1 [Example 3-48, (R)-N-(4-fluoro-5-((3-((5-fluoropyrimidin-2-yl)methyl)piperidin-1-yl)methyl)thiazol-2-yl)acetamide] |
| 540 nM | CC(=O)Nc1ncc(CN2CCCC(Cn3cc(C4CC4)cn3)C2)s1 (stereo not shown) [Example 4-6, N-(5-((3-((4-cyclopropyl-1H-pyrazol-1-yl)methyl)piperidin-1-yl)methyl)thiazol-2-yl)acetamide] |
| 25 nM | CC(=O)Nc1ncc(CN2CCCC(Cc3ncccc3C(F)(F)F)C2)s1 (stereo not shown) [Example 1-46, N-(5-((3-((3-(trifluoromethyl)pyridin-2-yl)methyl)piperidin-1-yl)methyl)thiazol-2-yl)acetamide] |
| 680 nM | CC(=O)Nc1ncc(CN2CCCC(Cn3nc(C)c(C)c3C)C2)s1 (stereo not shown) [Example 4-4, N-(5-((3-((3,4,5-trimethyl-1H-pyrazol-1-yl)methyl)piperidin-1-yl)methyl)thiazol-2-yl)acetamide] |
| 30 nM | CC(=O)Nc1ncc(CN2CCCC(Cc3cncc(C(F)(F)F)n3)C2)s1 (stereo not shown) [Example 1-26, N-(5-((3-((6-(trifluoromethyl)pyrazin-2-yl)methyl)piperidin-1-yl)methyl)thiazol-2-yl)acetamide] |
| > 20000 nM | CC(=O)Nc1ncc(CN2CC(Cc3ncc(F)cn3)CC[C@H]2C(F)(F)F)s1 (stereo partly shown) [Example 2-49] |
